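A five-concentration, 48-hour dose response in 96-well plates underlies each endpoint, interpolated linearly between surrounding concentrations. GI50 marks 50% less growth. At the TGI there is no net growth.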
Legend:
Assay in all cases: growth of human tumour cells (NCI), 48 h
[1] = tested on: MALME-3M melanoma
[2] = tested on: A498 renal
[3] = tested on: SF-295 CNS
[4] = tested on: MCF7 breast
[5] = tested on: RXF 393 renal
[6] = tested on: SNB-75 CNS
[7] = tested on: HCT-15 colon
[8] = tested on: A549 NSCLC
[9] = tested on: TK-10 renal
[10] = tested on: KM12 colon
[11] = tested on: 786-0 renal
[12] = tested on: COLO 205 colon
[13] = tested on: SNB-19 CNS
[14] = tested on: K-562 leukemia
[15] = tested on: ACHN renal
[16] = tested on: BT-549 breast
[17] = tested on: SR leukemia
[18] = tested on: HL-60(TB) leukemia
[19] = tested on: OVCAR-4 ovarian
[20] = tested on: OVCAR-5 ovarian
[21] = tested on: UO-31 renal
[22] = tested on: CCRF-CEM leukemia
[23] = tested on: HOP-62 NSCLC
[24] = tested on: NCI-H522 lung
[25] = tested on: NCI-H226 lung
[26] = tested on: MDA-MB-231 breast
[27] = tested on: PC-3 prostate
[28] = tested on: SW-620 colon
[29] = tested on: NCI-H23 lung
[30] = tested on: RPMI-8226 leukemia
[31] = tested on: SK-MEL-28 melanoma
[32] = tested on: UACC-62 melanoma
[33] = tested on: NCI-H460 lung
[34] = tested on: OVCAR-8 ovarian
[35] = tested on: SK-MEL-2 melanoma
[36] = tested on: SF-268 CNS
[37] = tested on: T-47D breast
[38] = tested on: IGROV1 ovarian
[39] = tested on: MDA-MB-435
[40] = tested on: HS 578T breast
[41] = tested on: HOP-92 NSCLC
[42] = tested on: DU-145 prostate
[43] = tested on: EKVX NSCLC
[44] = tested on: SF-539 CNS
[45] = tested on: OVCAR-3 ovarian
[46] = tested on: SK-MEL-5 melanoma
[47] = tested on: UACC-257 melanoma
[48] = tested on: HCT-116 colon
[49] = tested on: M14 melanoma
[50] = tested on: CAKI-1 renal
[51] = tested on: LOX IMVI melanoma
[52] = tested on: NCI/ADR-RES ovarian
[53] = tested on: HT29 colon
[54] = tested on: SN12C renal
[55] = tested on: MOLT-4 leukemia
[56] = tested on: SK-OV-3 ovarian
[57] = tested on: HCC-2998 colon
[58] = tested on: U251 CNS

OCC1OC(n2cnc3c(NCc4ccco4)ncnc32)C(O)C1O (stereo unspecified)
GI50 [1]: 5.91 µM | TGI [1]: 48.1 µM | GI50 [2]: 1.59 µM | TGI [2]: 5.5 µM | GI50 [3]: 1.21 µM | TGI [3]: 8.3 µM | GI50 [4]: 0.72 µM | TGI [4]: > 25.5 µM | GI50 [5]: 2.21 µM | TGI [5]: 15 µM | GI50 [6]: 1.73 µM | TGI [6]: > 28.1 µM | GI50 [7]: 0.524 µM | TGI [7]: > 28.1 µM | GI50 [8]: 2.6 µM | TGI [8]: 36.9 µM | GI50 [9]: 3.18 µM | TGI [9]: > 63.7 µM | GI50 [10]: 8.51 µM | TGI [10]: > 100 µM | GI50 [11]: 2.16 µM | TGI [11]: 10.3 µM | GI50 [12]: 2.25 µM | TGI [12]: 7.83 µM | GI50 [13]: 3.99 µM | TGI [13]: > 100 µM | GI50 [14]: 4.47 µM | TGI [14]: > 100 µM | GI50 [15]: 0.542 µM | TGI [15]: > 100 µM | GI50 [16]: 0.421 µM | TGI [16]: 2.64 µM | GI50 [17]: 1.56 µM | TGI [17]: 6.92 µM | GI50 [18]: 0.724 µM | TGI [18]: 3.48 µM | GI50 [19]: 2.8 µM | TGI [19]: 18.8 µM | GI50 [20]: 4.76 µM | TGI [20]: > 100 µM | GI50 [21]: 0.567 µM | TGI [21]: 53.7 µM | GI50 [22]: 0.43 µM | TGI [22]: 5.4 µM | GI50 [23]: 3.79 µM | TGI [23]: > 48.9 µM | GI50 [24]: 1.34 µM | TGI [24]: 22 µM | GI50 [25]: 12 µM | TGI [25]: > 71.2 µM | GI50 [26]: 0.348 µM | TGI [26]: 18.8 µM | GI50 [27]: 1.33 µM | TGI [27]: 19.1 µM | GI50 [28]: 0.849 µM | TGI [28]: > 100 µM | GI50 [29]: 2.87 µM | TGI [29]: 31.8 µM | GI50 [30]: 3 µM | TGI [30]: 21.3 µM | GI50 [31]: 8.72 µM | TGI [31]: > 100 µM | GI50 [32]: 3.34 µM | TGI [32]: 29.7 µM | GI50 [33]: 2.79 µM | TGI [33]: 32.8 µM | GI50 [34]: 0.16 µM | TGI [34]: 3.6 µM | GI50 [35]: 5.43 µM | TGI [35]: 31.6 µM | GI50 [36]: 4.28 µM | TGI [36]: > 100 µM | GI50 [37]: 2.43 µM | TGI [37]: 11.3 µM | GI50 [38]: 2.09 µM | TGI [38]: 13.9 µM | GI50 [39]: 2.08 µM | TGI [39]: 15.1 µM | GI50 [40]: 3.38 µM | TGI [40]: > 100 µM | GI50 [41]: 0.442 µM | TGI [41]: 5.1 µM | GI50 [42]: 1.27 µM | TGI [42]: 4.14 µM | GI50 [43]: 4.73 µM | TGI [43]: 81.7 µM | GI50 [44]: 3.07 µM | TGI [44]: 13.6 µM | GI50 [45]: 1.34 µM | TGI [45]: 3.12 µM | GI50 [46]: 9.36 µM | TGI [46]: > 74.1 µM | GI50 [47]: 52.5 µM | TGI [47]: > 100 µM | GI50 [48]: 0.338 µM | TGI [48]: 1.59 µM | GI50 [49]: 2.44 µM | TGI [49]: 17.2 µM | GI50 [50]: 0.369 µM | TGI [50]: 4.33 µM | GI50 [51]: 0.338 µM | TGI [51]: 1.48 µM | GI50 [52]: 0.675 µM | TGI [52]: > 35.7 µM | GI50 [53]: 2.1 µM | TGI [53]: > 38 µM | GI50 [54]: 0.386 µM | TGI [54]: > 100 µM | GI50 [55]: 0.585 µM | TGI [55]: 6.25 µM | GI50 [56]: 1.6 µM | TGI [56]: 14.2 µM | GI50 [57]: 3.85 µM | TGI [57]: 40 µM | GI50 [58]: 4.43 µM | TGI [58]: > 100 µM

Reference: PubChem BioAssay (NCI)
